Measured values as given in patent publication US20250333377A1, “SOLID FORM OF NAPHTHYLAMINE MITOPHAGY INDUCER, AND PREPARATION METHOD THEREFOR, PHARMACEUTICAL COMPOSITION THEREOF AND USE THEREOF” (HANGZHOU PHECDAMED CO., LTD., priority 2023, published 2025).

Experiments:
[1] = Crystal form conversion (heat treatment, suspension competition test, DSC analysis); format: physicochemical; settings: for Crystal form conversion / relative stability in suspension competition test: equal amounts mixed, RT/50, magnetic stirring ~1000 rpm, about 20 hours
Source text: The mutual conversion relationship among the A, B, C, D crystal forms of the sodium salt is further studied in this embodiment by heat treatment under nitrogen protection and suspension competition test.
However, the methods of heating, suspension pulping as well as grinding can not study the thermodynamic conversion relationship between crystal form A and crystal form D. In order to further study the thermodynamic conversion relationship of crystal form A and crystal form D, analyzed from the DSC pattern, the DSC of crystal form A is shown in FIG. 2, and the DSC of crystal form D is shown in FIG. 11, the melting point of crystal form A is higher than that of crystal form D, whereas the enthalpy of melting of crystal form A is much lower than that of crystal form D. It may be judged from the thermodynamic stability relationship table that if TA>TD, ΔHf, A>ΔHf, D, crystal form A and D is a univariate relationship, crystal form A is stable, if TA>TD, ΔHf, A<ΔHf, D, crystal forms A and D are reciprocal relationships, if the temperature is higher than the transcrystallization temperature, crystal form A is stable, and if the temperature is lower than the transcrystallization temperature, crystal form D is stable.

[2] = Hygroscopicity (vapor sorption analyser, DVS); format: physicochemical; settings: for Percentage weight gain by moisture absorption: 90% RH, 25° C.; for Hygroscopicity (in words): according to Table 7, 90% RH
Method: Single crystalline sample of compound TJ01-013 is tested using a Waters vaporsorption analyser. Taking a dry weighing tray, and laying a single sample of crystal form flat in the weighing tray, and the volume of the loaded samples is about ⅓ to ⅔ of that of the weighing tray. Instrument parameters are set as follows: temperature: 25° C.; equilibrium: dm/dt=0.01%/min (minimum time: 10 minutes, and maximum time: 180 minutes); drying: drying 120 minutes under 0% RH; RH (%) testing gradient: 10%; RH (%) test gradient range: 0%-90%-0%.

Structure (SMILES)	Percentage weight gain by moisture absorption [2]	Hygroscopicity (in words) [2]	also measured
O=C(O)C[S+]([O-])c1cc(NS(=O)(=O)c2ccc(Br)cc2)c2ccccc2c1O (stereo not drawn) [Embodiment 1]			Crystal form conversion / relative stability in suspension competition test ([1]; listed as crystal form A): more stable than crystal form B, C
O=C(O)C[S+]([O-])c1cc(NS(=O)(=O)c2ccc(Br)cc2)c2ccccc2c1O (stereo not drawn) [Embodiment 2]			Crystal form conversion / relative stability in suspension competition test ([1]; listed as crystal form B): able to be converted into crystal form A, D; Crystal form conversion on heat treatment ([1]; heating to 106° C. and then cooling to room temperature, nitrogen protection): converted into crystal form C
O=C(O)C[S+]([O-])c1cc(NS(=O)(=O)c2ccc(Br)cc2)c2ccccc2c1O (stereo not drawn) [Embodiment 3]			Crystal form conversion / relative stability in suspension competition test ([1]; listed as crystal form C): able to be converted into crystal form A, D
O=C(O)C[S+]([O-])c1cc(NS(=O)(=O)c2ccc(Br)cc2)c2ccccc2c1O (stereo not drawn) [Embodiment 5]	2.655%	slightly hygroscopic	
O=C(O)C[S+]([O-])c1cc(NS(=O)(=O)c2ccc(Br)cc2)c2ccccc2c1O (stereo not drawn) [Embodiment 6]	7.275%		
O=C(O)C[S+]([O-])c1cc(NS(=O)(=O)c2ccc(Br)cc2)c2ccccc2c1O (stereo not drawn) [Embodiment 7]	2.313%	slightly hygroscopic	
O=C(O)C[S+]([O-])c1cc(NS(=O)(=O)c2ccc(Br)cc2)c2ccccc2c1O (stereo not drawn) [Embodiment 9]	0.7884%	slightly hygroscopic	
O=C(O)C[S+]([O-])c1cc(NS(=O)(=O)c2ccc(Br)cc2)c2ccccc2c1O (stereo not drawn) [Embodiment 10]	0.2033%	slightly hygroscopic	
O=C(O)C[S+]([O-])c1cc(NS(=O)(=O)c2ccc(Br)cc2)c2ccccc2c1O (stereo not drawn) [Embodiment 11]	1.897%	slightly hygroscopic	
O=C(O)C[S+]([O-])c1cc(NS(=O)(=O)c2ccc(Br)cc2)c2ccccc2c1O (stereo not drawn) [Embodiment 12]	6.026%		
O=C(O)C[S+]([O-])c1cc(NS(=O)(=O)c2ccc(Br)cc2)c2ccccc2c1O (stereo not drawn) [Embodiment 13]	0.439%	slightly hygroscopic	
